Laboratory results: publication PMC5824694, “Evaluation of agonist and antagonist radioligands for somatostatin receptor imaging of breast cancer using positron emission tomography” (EJNMMI Radiopharmacy and Chemistry, 2017)
Like-named read-outs stand apart in the source and are kept apart here.

Legend:
[1] = biological target: T1, sstr2 receptors on ZR-75-1 cells (Homo sapiens, UniProt P30874); test: saturation binding assay on ZR-75-1 cells; conditions: ZR-75-1 cells in vitro; 1 h at 25 °C; one-site binding model
T1 construct: we used a human breast cancer cell model with endogenous sstr2 expression (ZR-75-1 cells); host or cells: ZR-75-1 cells

sstr2 [2] = system: sstr2; parameters: method as in Reubi et al. [2000]; conditions: ref Reubi et al. [2000]; cited from earlier work
[3] = biodistribution and PET/CT in ZR-75-1 tumor-bearing NOD scid gamma mice; conditions: female, mouse, in vivo, iv, total radioactivity; for tissue uptake at 1 h: NOD scid gamma (NOD.Cg-Prkdc^sci Il2rg^tm1Wjl/SzJ); for tissue to tissue ratio at 1 h: NOD scid gamma (NOD.Cg-Prkdc scid Il2rg tm1Wjl/SzJ)
Description: (§1) All animal studies were done in compliance with the Canadian Council on Animal Care guidelines and were approved by the Animal Care Committee of University of British Columbia (Vancouver, Canada). Immunodeficient female NOD.Cg-Prkdc ^sci Il2rg ^tm1Wjl/SzJ mice (NOD scid gamma) were obtained from an in-house breeding colony at the Animal Resource Centre of the BC Cancer Agency Research Centre and also from Jackson Laboratory. To sustain the growth of the ER-positive ZR-75-1 cell model, animals were administered a 1.7 mg, 60-day slow-release estrogen pellet from Innovative Research of America (Sarasota, FL) subcutaneously in the dorsal space of the neck. 3–5 days post pellet-implant, 10 million ZR-75-1 cells were re-suspended in a mixture of 1:1 PBS and Matrigel (Corning Inc., Corning, NY) and inoculated subcutaneously on the right shoulder. Tumors were grown for 5–6 weeks, until they reached a size of 7–11 mm in diameter.
(§2) Mice were sedated using 2 mL/min of O2 with 2% isoflurane and injected intravenously (i.v.) with 1–2 MBq of ^68Ga-labeled peptide. Mice were allowed to roam freely for 60 min prior to euthanasia by 2 mL/min of O2 with 4% isoflurane followed by CO2 asphyxiation. Blood was promptly collected by cardiac puncture and weighted. Internal organs were harvested, rinsed in PBS, patted dry and weighed. Organ uptake was measured either in a WIZARD 2480 gamma counter (Perkin Elmer) or Cobra II auto-gamma counter (Packard), both calibrated with standards of known ^68Ga activity. Uptake was normalized to the injected dose and to the respective weight of the organ, and expressed as percent injected dose per gram of tissue (%ID/g).
(§3) Tumor-bearing mice were injected i.v. with 8–9 MBq of ^68Ga-labeled peptide. Static PET images were acquired 55 min post-injection for 10 min using an Inveon microPET/CT scanner (Siemens, Erlangen, Germany) as described previously (Lin et al. [2015]). A baseline CT scan was used for localization and attenuation correction. Mice were promptly euthanized after imaging, and biodistribution studies were undertaken as described above.

ZR-75-1 tumors = test: as above; conditions: mouse, in vivo, iv; for Kidneys uptake / Tumor uptake: female, NOD scid gamma (NOD.Cg-Prkdc^sci Il2rg^tm1Wjl/SzJ)
Description: as §1, §2, §3

sstr2 [4] = system: sstr2; parameters: method as in Fani et al. [2012b]; conditions: autoradiography approach; ref Fani et al. [2012b]; cited from earlier work
NET = conditions: human, in vivo; cited from earlier work

T1 sequence (P30874 whole entry): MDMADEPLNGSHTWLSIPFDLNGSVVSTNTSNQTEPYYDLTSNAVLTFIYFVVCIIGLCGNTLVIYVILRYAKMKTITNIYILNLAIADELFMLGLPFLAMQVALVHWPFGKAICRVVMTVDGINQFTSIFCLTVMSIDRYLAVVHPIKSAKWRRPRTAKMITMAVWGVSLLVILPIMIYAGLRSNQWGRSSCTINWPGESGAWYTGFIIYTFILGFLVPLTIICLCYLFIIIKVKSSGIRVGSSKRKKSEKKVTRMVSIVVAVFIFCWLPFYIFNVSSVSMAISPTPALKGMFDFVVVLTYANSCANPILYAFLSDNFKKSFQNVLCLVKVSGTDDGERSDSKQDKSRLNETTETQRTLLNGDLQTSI

SMILES | tissue uptake at 1 h ([3]; Blood uptake) [%ID/g] | tissue uptake at 1 h ([3]; Bone uptake) [%ID/g] | tissue uptake at 1 h ([3]; Fat uptake) [%ID/g] | tissue uptake at 1 h ([3]; Heart uptake) [%ID/g] | tissue uptake at 1 h ([3]; Intestines uptake) [%ID/g] | tissue uptake at 1 h ([3]; Kidneys uptake) [%ID/g] | tissue uptake at 1 h ([3]; Liver uptake) [%ID/g] | tissue uptake at 1 h ([3]; Lungs uptake) [%ID/g] | tissue uptake at 1 h ([3]; Ovaries uptake) [%ID/g] | tissue uptake at 1 h ([3]; Pancreas uptake) [%ID/g] | tissue uptake at 1 h ([3]; Spleen uptake) [%ID/g] | tissue uptake at 1 h ([3]; Stomach uptake) [%ID/g] | tissue uptake at 1 h ([3]; Uterus uptake) [%ID/g] | Kidneys uptake (ZR-75-1 tumors; 1 h) [%ID/g] | further results
C[C@@H](O)[C@@H]1NC(=O)[C@H](CCCCN)NC(=O)[C@@H](Cc2ccc(NC(N)=O)cc2)NC(=O)[C@H](Cc2ccc(NC(=O)[C@@H]3CC(=O)NC(=O)N3)cc2)NC(=O)[C@H](NC(=O)[C@H](Cc2ccc(Cl)cc2)NC(=O)CCC(C(=O)O)N2CCN(CC(=O)O)CCN(CC(=O)O)CC2)CSSC[C@@H](C(=O)N[C@H](Cc2ccc(O)cc2)C(N)=O)NC1=O (stereo partly drawn) [^67/natGa-NODAGA-JR11, metal not drawn] |  |  |  |  |  |  |  |  |  |  |  |  |  |  | Bmax (number of binding sites) [1]: 4.39 ± 0.32 × 10^4 sites/cell
C[C@@H](O)[C@H](NC(=O)[C@@H]1CSSC[C@H](NC(=O)[C@@H](Cc2ccccc2)NC(=O)CN2CCN(CC(=O)O)CCN(CC(=O)O)CCN(CC(=O)O)CC2)C(=O)N[C@@H](Cc2ccc(O)cc2)C(=O)N[C@H](Cc2c[nH]c3ccccc23)C(=O)N[C@@H](CCCCN)C(=O)N[C@@H]([C@@H](C)O)C(=O)N1)C(=O)O [^68Ga-DOTATATE, ^68Ga-DOTA-Tyr^3-octreotate, metal not drawn] | 0.35 | 0.25 | 0.28 | 0.67 | 7.35 | 8.5 ± 1.7 | 1.95 | 28.7 | 0.89 | 51.6 | 0.84 | 8.29 | 0.84 | 8.45 | Brain uptake (ZR-75-1 tumors; 1 h): 0.03 %ID/g
C[C@@H](O)[C@@H]1NC(=O)[C@H](CCCCN)NC(=O)[C@@H](Cc2ccc(NC(N)=O)cc2)NC(=O)[C@H](Cc2ccc(NC(=O)[C@@H]3CC(=O)NC(=O)N3)cc2)NC(=O)[C@H](NC(=O)[C@H](Cc2ccc(Cl)cc2)NC(=O)CCC(C(=O)O)N2CCN(CC(=O)O)CCN(CC(=O)O)CC2)CSSC[C@@H](C(=O)N[C@H](Cc2ccc(O)cc2)C(N)=O)NC1=O (stereo partly drawn) [^natGa-NODAGA-JR11, metal not drawn] |  |  |  |  |  |  |  |  |  |  |  |  |  |  | IC50 (sstr2 [4]): 1.2 ± 0.2 nM
C[C@@H](O)[C@@H]1NC(=O)[C@H](CCCCN)NC(=O)[C@@H](Cc2ccc(NC(N)=O)cc2)NC(=O)[C@H](Cc2ccc(NC(=O)[C@@H]3CC(=O)NC(=O)N3)cc2)NC(=O)[C@H](NC(=O)[C@H](Cc2ccc(Cl)cc2)NC(=O)CCC(C(=O)O)N2CCN(CC(=O)O)CCN(CC(=O)O)CC2)CSSC[C@@H](C(=O)N[C@H](Cc2ccc(O)cc2)C(N)=O)NC1=O (stereo partly drawn) [^68Ga-NODAGA-JR11, metal not drawn] | 0.8 | 0.26 | 0.23 | 0.46 | 0.9 | 14.1 ± 1.7 | 0.99 | 4.72 | 0.67 | 9.29 | 0.39 | 1.36 | 0.86 | 14.12 | tissue to tissue ratio at 1 h ([3]; Tumor to Background Ratio: Blood (tumor-to-blood)): 15.6; tissue to tissue ratio at 1 h ([3]; Tumor to Background Ratio: Kidneys): 0.87; tissue to tissue ratio at 1 h ([3]; Tumor to Background Ratio: Muscle (tumor-to-muscle)): 45.1; tissue uptake at 1 h ([3]; Adrenals uptake): 2 %ID/g; tissue uptake at 1 h ([3]; Brain uptake): 0.05 %ID/g; tissue uptake at 1 h ([3]; Muscle uptake): 0.28 %ID/g; tissue uptake at 1 h ([3]; Tumor uptake): 12.2 ± 0.8 %ID/g; Tumor uptake (ZR-75-1 tumors; 1 h): 12.21 %ID/g; Tumor to Background Ratio: Blood (tumor-to-blood) (ZR-75-1 tumors): 15.6 ± 2.2; Tumor to Background Ratio: Muscle (tumor-to-muscle) (ZR-75-1 tumors): 45.2 ± 11.6; higher SUVmax uptake compared to ^68Ga-DOTATOC (NET): ~ 15%
C[C@@H](O)[C@@H]1NC(=O)[C@H](CCCCN)NC(=O)[C@@H](Cc2c[nH]c3ccccc23)NC(=O)[C@H](Cc2ccc(O)cc2)NC(=O)[C@@H](NC(=O)[C@@H](Cc2ccccc2)NC(=O)CN2CCN(CC(=O)O)CCN(CC(=O)O)CCN(CC(=O)O)CC2)CSSC[C@@H](C(=O)N[C@H](CO)[C@@H](C)O)NC1=O [^68Ga-DOTATOC, ^68Ga-DOTA-Tyr^3-octreotide, metal not drawn] | 0.45 | 0.2 | 0.18 | 0.3 | 2.39 | 9.3 ± 1.7 | 0.71 | 22.9 | 0.51 | 11 | 0.46 | 2.75 | 0.54 | 9.27 | tissue uptake at 1 h ([3]; Adrenals uptake): 9.52 %ID/g; tissue uptake at 1 h ([3]; Brain uptake): 0.03 %ID/g; tissue uptake at 1 h ([3]; Muscle uptake): 0.11 %ID/g; tissue uptake at 1 h ([3]; Tumor uptake): 18.4 ± 2.9 %ID/g; Tumor uptake (ZR-75-1 tumors; 1 h): 18.44 %ID/g
